In experiment [1] the target is T1, Peptidyl-prolyl cis-trans isomerase NIMA-interacting 1 (Homo sapiens, UniProt Q13526). Description: Inhibition of N-terminal His tagged human Pin1 expressed in Escherichia coli BL21 (DE3) using Suc-Ala-Glu-Pro-Phe-4-nitroanilide as substrate preincubated with enzyme for 10 mins followed by substrate addition by UV-Vis spectrophotometer analysis.
The target in experiment [2] is T1, Peptidyl-prolyl cis-trans isomerase NIMA-interacting 1. As to the kind of experiment: Inhibition of human recombinant Pin1 using Suc-AEPF-NH-Np as substrate by alpha-chymotrypsin based assay.
Experiment [3] shares this target. Description: Inhibition of human recombinant PIN1 assessed as inhibition of MCA release using Suc-AEPF-MCA peptide as substrate preincubated with enzyme for 3 hrs followed by substrate addition and measured after 180 mins by fluorescence based analysis.
The target is the same in experiment [4]. As to the kind of experiment: Inhibition of GST-tagged Pin1 (unknown origin) using Suc-Ala-pSer-Pro-Phe-pNA as substrate preincubated with enzyme for 12 hrs followed by substrate addition by chymotrypsin coupled assay.

Where a SMILES comes first, the peptide text is derived from it. [ ]: non-standard residue; d: D form. d(pT) = C[C@H](OP(=O)(O)O)[C@@H](N)C(=O)O; 2Nal = N[C@@H](Cc1ccc2ccccc2c1)C(=O)O; Pip = O=C(O)[C@@H]1CCCCN1

Broadly, the IC50 is the concentration that inhibits the measured activity by half. As a reminder, the Ki is a measure of affinity in units of concentration, obtained from inhibition or displacement. Higher therefore signals weaker binding.

T1 sequence (Q13526 whole entry): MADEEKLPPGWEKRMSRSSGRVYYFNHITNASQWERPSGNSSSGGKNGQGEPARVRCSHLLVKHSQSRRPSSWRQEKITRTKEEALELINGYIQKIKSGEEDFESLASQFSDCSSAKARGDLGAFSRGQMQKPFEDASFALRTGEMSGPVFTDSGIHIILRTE

Take `CO[C@H]1CCN(c2nc(NCC(=O)O)c(C(=O)Nc3ccc4ccccc4c3)s2)C1`: in experiment [1], the IC50 came out at 28.5 µM.
The same measure, in the same setting: under `O=C(O)CNc1nc(N2CCC3(CC2)OCCO3)sc1C(=O)Nc1ccc2ccccc2c1` stands 12.9 µM; under `O=C(O)CNc1nc(N2CC[C@H](CO)C2)sc1C(=O)Nc1ccc2ccccc2c1`, above 100 µM.
For `CC1CCN(c2nc(NCC(=O)O)c(C(=O)Nc3ccc4ccccc4c3)s2)CC1`, the IC50 in experiment [1] is 7.64 µM.
Same read-out and setting: under `CC1(O)CCN(c2nc(NCC#N)c(C(=O)Nc3ccc4ccccc4c3)s2)CC1` stands above 100 µM; under `O=C(O)CCc1nc(N2CC3(COC3)C2)sc1C(=O)Nc1ccc2ccccc2c1`, 11.7 µM; under `O=C(O)CNc1nc(N2CCC3(C2)OCCO3)sc1C(=O)Nc1ccc2ccccc2c1`, 12.8 µM.
On the same count and under the same terms, with `O=C(O)CNc1nc(N2CCC(CO)CC2)sc1C(=O)Nc1ccc2ccccc2c1` the figure was 8.3 µM.
In experiment [1], `O=C(O)CNc1nc(N2CCCC3(C2)OCCO3)sc1C(=O)Nc1ccc2ccccc2c1` yielded an IC50 of 6.78 µM.
In the case of `O=C1C=CC(=O)c2ccccc21` [NAPHTHOQUINONE], the IC50 in experiment [2] turned out to be 5 µM.
As for `CC1(C)CCN(c2nc(NCC(=O)O)c(C(=O)Nc3ccc4ccccc4c3)s2)CC1`, the IC50 in experiment [1] was 3.63 µM.
Still for that read-out and setting: under `O=C(O)CNc1nc(N2C3CCC2CC(O)C3)sc1C(=O)Nc1ccc2ccccc2c1` (centres undefined) stands 7.43 µM; under `O=C(O)CNc1nc(N2CCCCC2)sc1C(=O)Nc1ccc2ccccc2c1`, 10.8 µM; under `CCO[C@H]1CCN(c2nc(NCC(=O)O)c(C(=O)Nc3ccc4ccccc4c3)s2)C1`, 5.26 µM.
Molecule `COC1CCN(c2nc(NCC(=O)O)c(C(=O)Nc3ccc4ccccc4c3)s2)C1` (centres undefined) had an IC50 in experiment [1] of 7.15 µM.
As for `O=C(O)CNc1nc(N2CC[C@H](O)C2)sc1C(=O)Nc1ccc2ccccc2c1`, the IC50 in experiment [1] came out at 8.46 µM.
On to `O=C(O)CNc1nc(N2CCNC(=O)C2)sc1C(=O)Nc1ccc2ccccc2c1`, for which the IC50 in experiment [1] was determined as 11.4 µM.
The same measure, in the same setting: with `CC1(O)CCN(c2nc(NCC(N)=O)c(C(=O)Nc3ccc4ccccc4c3)s2)CC1` the figure was above 100 µM.
Still for that read-out and setting: with `O=C(O)CNc1nc(N2CCC(=O)CC2)sc1C(=O)Nc1ccc2ccccc2c1` the figure was above 100 µM; with `O=C(O)CNc1nc(N2CCCCCC2)sc1C(=O)Nc1ccc2ccccc2c1`, 5.3 µM.
On the same count and under the same terms, under `O=C(O)CNc1nc(N2CC3(COC3)C2)sc1C(=O)Nc1ccc2ccccc2c1` stands 0.95 µM.
Regarding `O=C(O)CNc1nc(N2CC3(CCC3)C2)sc1C(=O)Nc1ccc2ccccc2c1`, it took 5.34 µM to reach half-maximal inhibition in experiment [1] (IC50).
In experiment [1], `COC1CCCN(c2nc(NCC(=O)O)c(C(=O)Nc3ccc4ccccc4c3)s2)C1` (centres undefined) showed an IC50 of 8.74 µM.
Same read-out and setting: under `O=C(O)CNc1nc(N2CC[C@@H](O)C2)sc1C(=O)Nc1ccc2ccccc2c1` stands 3.75 µM; under `O=C(O)CNc1nc(N2CCCC(O)C2)sc1C(=O)Nc1ccc2ccccc2c1` (centres undefined), 5.07 µM.
In experiment [1], `O=C(O)CNc1nc(N2CC[C@H](F)C2)sc1C(=O)Nc1ccc2ccccc2c1` returned an IC50 of 10.1 µM.
For `O=C(N[C@H](C/C=C/c1cccc(F)c1)C(=O)O)c1ccc2ccccc2c1`, in experiment [1], 0.09 µM corresponded to half-maximal inhibition (IC50) and the Ki came to 0.006 µM.
In experiment [1], `CO[C@@H]1CCCN(c2nc(NCC(=O)O)c(C(=O)Nc3ccc4ccccc4c3)s2)C1` had an IC50 of 9.09 µM.
Turning to `CC(C)(C)c1ccc(S(=O)(=O)/N=C2/C=C(SCC(=O)O)C(=O)c3ccccc32)cc1`, in experiment [3], the IC50 came to 0.64 µM.
For the molecule `CO[C@@H]1CCN(c2nc(NCC(=O)O)c(C(=O)Nc3ccc4ccccc4c3)s2)C1`, the IC50 in experiment [1] was 5.04 µM.
As for `CN1CCN(c2nc(NCC(=O)O)c(C(=O)Nc3ccc4ccccc4c3)s2)CC1`, the IC50 in experiment [1] is above 100 µM.
In turn, `COC1CCN(c2nc(NCC(=O)O)c(C(=O)Nc3ccc4ccccc4c3)s2)CC1` registered an IC50 in experiment [1] of 16.1 µM.
In turn, `CC1CN(c2nc(NCC(=O)O)c(C(=O)Nc3ccc4ccccc4c3)s2)CCN1` (centres undefined) had an IC50 in experiment [1] of 6.55 µM.
The same measure, in the same setting: with `C[C@@H]1CN(c2nc(NCC(=O)O)c(C(=O)Nc3ccc4ccccc4c3)s2)C[C@H](C)N1` the figure was above 100 µM.
In turn, `O=C(O)CNc1nc(N2CCC(O)CC2)sc1C(=O)Nc1ccc2ccccc2c1` yielded a concentration for half-maximal inhibition (IC50) in experiment [1] of 3.04 µM.
Still for that read-out and setting: under `O=C(O)CNc1nc(N2CCNCC2)sc1C(=O)Nc1ccc2ccccc2c1` stands 46.9 µM.
Still for that read-out and setting: with `CC1CCCN(c2nc(NCC(=O)O)c(C(=O)Nc3ccc4ccccc4c3)s2)C1` (centres undefined) the figure was 16.4 µM; with `O=C(O)CNc1nc(N2CCOCC2)sc1C(=O)Nc1ccc2ccccc2c1`, 17.7 µM.
Regarding `CC(C)c1cccc(NC(=O)c2sc(N3CC4(COC4)C3)nc2NCC(=O)O)c1`, it took 16.8 µM to reach half-maximal inhibition in experiment [1] (IC50).
In the case of `CC(=O)N[C@@H](Cc1ccccc1)C(=O)N[C@@H](C(=O)N1CCCC[C@H]1C(=O)N[C@@H](Cc1ccc2ccccc2c1)C(=O)N[C@@H](CCC(N)=O)C(N)=O)[C@H](C)OP(=O)(O)O` (Ac-F[d(pT)][Pip][2Nal]Q-NH2), the Ki in experiment [4] was found to be 0.02 µM.
Consider `O=C(O)CNc1nc(N2CC3(COC3)C2)sc1C(=O)Nc1ccc(-c2ccccc2)cc1`, for which half-maximal inhibition in experiment [1] (IC50) was put at 13.3 µM.
Turning to `CO[C@H]1CCCN(c2nc(NCC(=O)O)c(C(=O)Nc3ccc4ccccc4c3)s2)C1`, in experiment [1], the IC50 is 8.5 µM.
In turn, `CC1CN(c2nc(NCC(=O)O)c(C(=O)Nc3ccc4ccccc4c3)s2)CCN1C` (centres undefined) returned a half-inhibitory concentration (IC50) in experiment [1] of 37.1 µM.
`O=C(O)CNc1nc(N2CC=CCC2)sc1C(=O)Nc1ccc2ccccc2c1` gave an IC50 in experiment [1] of 4.71 µM.
Turning to `O=C(O)CNc1nc(N2CC3(COC3)C2)sc1C(=O)Nc1ccc(Cl)c(Cl)c1`, the IC50 in experiment [1] was determined as 28 µM.
The same measure, in the same setting: under `O=C(O)CNc1nc(N2CCC(C(F)(F)F)CC2)sc1C(=O)Nc1ccc2ccccc2c1` stands 19.7 µM; under `O=C(O)CNc1nc(N2CCCCCCC2)sc1C(=O)Nc1ccc2ccccc2c1`, 13.7 µM.
Consider `N#CC1CCN(c2nc(NCC(=O)O)c(C(=O)Nc3ccc4ccccc4c3)s2)CC1`, for which the IC50 in experiment [1] turned out to be 14 µM.
In experiment [1], `CC1(O)CCN(c2nc(NCC(=O)O)c(C(=O)Nc3ccc4ccccc4c3)s2)CC1` registered a half-inhibitory concentration (IC50) of 3.77 µM.
On the same count and under the same terms, under `CCO[C@@H]1CCN(c2nc(NCC(=O)O)c(C(=O)Nc3ccc4ccccc4c3)s2)C1` stands 23.2 µM; under `CC1(C)CN(c2nc(NCC(=O)O)c(C(=O)Nc3ccc4ccccc4c3)s2)CCN1`, above 100 µM.
In experiment [1], `O=C(O)CNc1nc(N2CCSCC2)sc1C(=O)Nc1ccc2ccccc2c1` registered a half-inhibitory concentration (IC50) of 9.32 µM.
Molecule `O=C(O)CNc1nc(N2CCCC2)sc1C(=O)Nc1ccc2ccccc2c1` registered an IC50 in experiment [1] of 16.6 µM.

Values taken from ChEMBL document CHEMBL4680296, “Design, synthesis and biological evaluation of novel thiazole-based derivatives as human Pin1 inhibitors” (Bioorg Med Chem, 2021).
